Results taken from the NIST ThermoML archive (doi:10.1016/j.jct.2018.12.026).
Numbers after ± are expanded uncertainties.

Key:
[1] = Liquid; Ebulliometric method (Recirculating still)
[2] = refractive index (Na D-line) (dimensionless); details: 293.15 K; 101.33 kPa; Liquid; Standard Abbe refractometry

Normal boiling temperature [1] | refractive index [2] | Structure (SMILES)
78.40 ± 0.2 °C | 1.3608 ± 0.0009 | CCO [ethanol]
99.10 ± 0.2 °C | 1.3839 ± 0.0005 | CCOC(=O)CC [ethyl propanoate]
141.20 ± 0.2 °C | 1.3872 ± 0.0008 | CCC(=O)O [propanoic acid]
100.00 ± 0.2 °C | 1.333 ± 0.0005 | O [water]
